1 molecule from PMC10272112 (Nature Communications, 2023) can be followed below.

For one test, the target named is T1, HDAC4 (Homo sapiens, UniProt P56524).
T1 construct: endogenous in cells; host or cells: cell lysate
Nature of the test: Chemoproteomic competition pulldown assay with iC. Format: binding. The settings on record: for relative binding vs DMSO: iC. The procedure:
(§1) To identify proteins directly bound by lipoic acid, we employed a chemoproteomic competition assay. Briefly, (R/S)-LA was immobilized on sepharose beads via an amidation reaction to form an affinity matrix (abbreviated as iL; Fig. 1a). This affinity matrix can be incubated with cell lysate to pull down potential LA or LM target proteins and identify these targets via bottom-up proteomics. In a competition assay, free LA or LM were incubated with lysate at different concentrations before pulling down and quantifying target proteins. […] (Fig. 1b, see “Methods” for details). […] The lysate buffer used in this assay contains 1 mM DTT to mimic the intracellular reductive milieu and to reduce lipoic acid and LM. […] Additional competition assays performed in lung adenocarcinoma cell A549 lysate also identified HDAC1, HDAC2, and HDAC6 as targets (Supplementary Fig. 1b). Amongst the three cell lines tested, HDACs were the only confidently identified targets across the 1500–3000 proteins quantified in these assays. […] We validated the results by analogous pulldown competition assays using two other affinity matrices prepared via the immobilization of either the HDAC inhibitor Quisinostat (iQ) and an analog of the class IIa HDAC inhibitor Bürli’s 31[14] (iC)[12]. We have previously shown that these affinity matrices specifically bind to the active sites of HDACs and have used them for HDACi selectivity profiling. Indeed, binding of (R/S)-LA and (R/S)-LM to HDAC1, HDAC2, HDAC3, HDAC6, and, to a lesser extent, HDAC8 was confirmed in these assays (Supplementary Fig. 1c, d). No binding to class IIa HDACs or the recently discovered common HDAC inhibitor off-target MBLAC2 was observed (Supplementary Fig. 1e)[12]. […] This observation might reflect electrostatic repulsion between the HDAC10 active site gate-keeper glutamic acid residues[15],[16] and the terminal carboxylic acid of LA.
(§2) To assess the degree of protein depletion from lysates by the affinity matrix, a second pulldown (PDPD) with fresh beads was performed using the unbound protein fraction from the vehicle control flow through. The beads were washed (1 × 1 mL of lysis buffer without inhibitors and only 0.4% Igepal, 2 × 2 mL of lysis buffer without inhibitors and only 0.2% Igepal), and captured proteins were denatured with 8 M urea buffer, alkylated with 55 mM chloroacetamide and digested with Trypsin according to standard procedures. The resulting peptides were desalted on a C18 filter plate (Sep-Pak® tC18 µElution Plate, Waters), vacuum dried, and stored at −20 °C until LC–MSMS measurement.
(§3) For the competition assays, relative binding was calculated based on the protein intensity ratio to the DMSO control for every single inhibitor concentration. EC50 values were derived from a four-parameter log-logistic regression with variable slope (constrain: bottom > 0). The obtained EC50 values were multiplied with a protein-dependent correction factor (cf), resulting in the apparent Kd value (Kd^app). The correction factor is determined by calculating the ratio of the protein intensity of two consecutive pulldowns of the vehicle control sample[13]. Targets of the inhibitors were annotated manually according to published procedures[12],[46],[47]. […] Additionally, the number of unique peptides and MSMS counts per condition were taken into account. Positive target binding across several independent experiments performed with different cell lysates further substantiated our confidence for a true positive drug-target binding event.

Another test has as its target T2, HDAC7 (Homo sapiens, UniProt Q8WUI4).
T2 construct: endogenous in cells; host or cells: cell lysate
T2 sequence (Q8WUI4 1-952): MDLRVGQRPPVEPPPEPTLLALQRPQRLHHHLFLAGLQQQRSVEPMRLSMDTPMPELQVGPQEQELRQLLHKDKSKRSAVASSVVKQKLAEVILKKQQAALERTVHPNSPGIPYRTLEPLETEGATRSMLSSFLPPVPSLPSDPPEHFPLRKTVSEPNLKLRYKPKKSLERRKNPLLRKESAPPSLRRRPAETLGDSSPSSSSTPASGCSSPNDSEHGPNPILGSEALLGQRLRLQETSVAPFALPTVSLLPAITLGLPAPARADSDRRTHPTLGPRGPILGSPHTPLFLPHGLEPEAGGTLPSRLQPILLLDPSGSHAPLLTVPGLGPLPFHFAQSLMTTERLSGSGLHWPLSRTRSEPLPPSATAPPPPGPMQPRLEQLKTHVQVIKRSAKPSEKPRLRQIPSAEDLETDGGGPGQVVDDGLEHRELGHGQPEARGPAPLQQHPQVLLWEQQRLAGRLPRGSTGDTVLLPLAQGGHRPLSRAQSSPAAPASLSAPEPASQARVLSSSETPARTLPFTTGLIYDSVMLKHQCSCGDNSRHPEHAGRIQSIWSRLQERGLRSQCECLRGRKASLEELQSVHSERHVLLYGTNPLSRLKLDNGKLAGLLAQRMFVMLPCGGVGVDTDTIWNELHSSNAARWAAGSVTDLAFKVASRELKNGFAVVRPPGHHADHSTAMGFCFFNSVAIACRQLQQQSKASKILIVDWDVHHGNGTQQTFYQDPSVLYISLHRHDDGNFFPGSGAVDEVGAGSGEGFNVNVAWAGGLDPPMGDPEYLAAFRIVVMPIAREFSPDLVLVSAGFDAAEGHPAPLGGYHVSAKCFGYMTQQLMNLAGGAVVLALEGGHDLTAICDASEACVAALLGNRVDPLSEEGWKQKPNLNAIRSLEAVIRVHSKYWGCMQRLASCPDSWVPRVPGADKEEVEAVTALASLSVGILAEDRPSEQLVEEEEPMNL
Nature of the test: Chemoproteomic competition pulldown assay with iC. The class given is binding. The method, then: as §1, §2, §3

T1 sequence (P56524 whole entry): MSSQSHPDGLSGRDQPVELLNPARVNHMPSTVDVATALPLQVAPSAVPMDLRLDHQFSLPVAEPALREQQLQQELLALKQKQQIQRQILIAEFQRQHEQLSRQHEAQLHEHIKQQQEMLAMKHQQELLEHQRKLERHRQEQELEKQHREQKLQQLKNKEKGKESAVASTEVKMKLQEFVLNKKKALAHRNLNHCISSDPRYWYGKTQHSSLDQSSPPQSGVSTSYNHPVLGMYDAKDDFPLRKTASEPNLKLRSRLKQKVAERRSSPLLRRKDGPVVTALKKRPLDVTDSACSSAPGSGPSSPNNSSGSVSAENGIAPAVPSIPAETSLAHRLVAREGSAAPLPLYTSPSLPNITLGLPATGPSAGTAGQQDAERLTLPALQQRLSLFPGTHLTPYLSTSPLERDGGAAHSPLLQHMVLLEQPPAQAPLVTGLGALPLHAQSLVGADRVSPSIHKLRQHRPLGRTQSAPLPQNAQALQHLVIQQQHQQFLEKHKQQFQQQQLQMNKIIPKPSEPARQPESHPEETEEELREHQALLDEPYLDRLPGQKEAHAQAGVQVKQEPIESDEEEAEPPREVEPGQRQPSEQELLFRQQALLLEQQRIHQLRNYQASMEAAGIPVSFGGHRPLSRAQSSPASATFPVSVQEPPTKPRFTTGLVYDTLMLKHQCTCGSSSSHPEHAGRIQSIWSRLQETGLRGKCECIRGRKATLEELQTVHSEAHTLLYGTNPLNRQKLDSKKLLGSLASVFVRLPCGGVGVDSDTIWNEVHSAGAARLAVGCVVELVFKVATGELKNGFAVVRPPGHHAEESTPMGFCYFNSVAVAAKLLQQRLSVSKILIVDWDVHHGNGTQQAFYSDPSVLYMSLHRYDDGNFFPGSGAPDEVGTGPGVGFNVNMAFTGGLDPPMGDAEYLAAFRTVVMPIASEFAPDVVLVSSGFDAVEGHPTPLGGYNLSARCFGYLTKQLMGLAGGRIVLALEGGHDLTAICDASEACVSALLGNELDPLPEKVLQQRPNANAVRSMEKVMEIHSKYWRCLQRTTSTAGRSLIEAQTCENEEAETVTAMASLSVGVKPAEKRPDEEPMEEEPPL

In the case of `O=C(O)CCCCC1CCSS1` (racemic) [(R/S)-LA, (R/S)-lipoic acid], the “binding to class IIa HDACs” value at HDAC4 (affinity matrix iC) is on record as “No binding”. The “relative binding vs DMSO” value on HDAC4 (log10 M -3.52288) came out at 1.609; on HDAC4 (log10 M -4), 1.464; at HDAC4 (log10 M -4.52288) it was 1.531; on HDAC4 (log10 M -5) it was 1.518; at HDAC4 (log10 M -5.52288) it was 1.32; on HDAC4 (log10 M -6), 1.575. Also, the “relative binding vs DMSO” value on HDAC4 (log10 M -6.52288) is given as 1.649; on HDAC4 (log10 M -7) it was 1.276; on HDAC7 (log10 M -3.52288), 1.458; on HDAC7 (log10 M -4), 1.397; at HDAC7 (log10 M -4.52288) it was 1.757; at HDAC7 (log10 M -5), 1.642. Also, the “relative binding vs DMSO” value on HDAC7 (log10 M -5.52288) was 1.564; at HDAC7 (log10 M -6), 1.746; at HDAC7 (log10 M -6.52288) it was 1.164; at HDAC7 (log10 M -7), 1.455.
